We go through one compound from US20230241027A1, “DIALKYL T[…] THEIR […] USES” (CAAMTECH, INC., priority 2020, published 2023).

The nature of this data set: hydrolysis of the compound into its active (dissolved in water, followed by NMR).

A word on the half-life: it is how long it takes for the measured level to halve. A high value points to slow decline. With `CN(C)CCc1c[nH]c2cccc(OP(=O)(O)O)c12` [Psilocybin], the half-life was less than 365 days.
